Measurements reported in patent US20240002391A1, “4-ALKOXYPYRROLO[2,1-F][1,2,4]TRIAZINES AND PREPARATION AND USES THEREOF” (BioSplice Therapeutics, Inc., priority 2022, published 2024).

Target: recombinant DYRK1A kinase (Homo sapiens (Human), UniProt Q13627)
Assay: DYRK1A kinase assay (Ser/Thr 18 peptide Z-lyte FRET)
Assay type: biochemical
Conditions: DYRK1A kinase activity, Z-lyte Ser/Thr 18 peptide, 15 μM ATP; method text calls the value IC50; read-out: EC50 (the source's name)
How it was run: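 Steps: combine 0.25 μg/mL kinase, 15 μM ATP and 4 μM peptide with test compound; incubate 1 h at room temperature; add diluted development reagent for another hour; read coumarin and fluorescein emission at Ex 400. The emission ratio yields percent phosphorylation, from which IC50 is derived.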

| Structure (SMILES) | IC50 |
| --- | --- |
| COc1nc(N[C@H]2C[C@](C)(NC(C)=O)C2)nn2ccc(-c3cc(F)c4nc(C)n(CC(F)F)c4c3)c12 [Compound 149, N-((1r,3r)-3-((5-(1-(2,2-Difluoroethyl)-4-fluoro-2-methyl-1H-benzo[d]imidazol-6-yl)-4-methoxypyrrolo[2,1-f][1,2,4]triazin-2-yl)amino)-1-methylcyclobutyl)acetamide] | 1.5 nM |
| COc1nc(N[C@H]2CC[C@](C)(O)CC2)nn2ccc(-c3cc(F)c4nc(C)n(CC(F)F)c4c3)c12 [Compound 151, trans-4-((5-(1-(2,2-difluoroethyl)-4-fluoro-2-methyl-1H-benzo[d]imidazol-6-yl)-4-methoxypyrrolo[2,1-f][1,2,4]triazin-2-yl)amino)-1-methylcyclohexan-1-ol] | 1.7 nM |
| COc1nc(N[C@@H]2CCN(C3COC3)C[C@H]2F)nn2ccc(-c3cc(F)c4nc(C)n(CC(F)F)c4c3)c12 [Compound 159, 5-(1-(2,2-Difluoroethyl)-4-fluoro-2-methyl-1H-benzo[d]imidazol-6-yl)-N-((3R,4R)-3-fluoro-1-(oxetan-3-yl)piperidin-4-yl)-4-methoxypyrrolo[2,1-f][1,2,4]triazin-2-amine] | 2.9 nM |
| COc1nc(N[C@H]2CCN(C3COC3)C[C@H]2F)nn2ccc(-c3cc(F)c4nc(C)n(CC(F)F)c4c3)c12 [Compound 161, 5-(1-(2,2-Difluoroethyl)-4-fluoro-2-methyl-1H-benzo[d]imidazol-6-yl)-N-((3R,4S)-3-fluoro-1-(oxetan-3-yl)piperidin-4-yl)-4-methoxypyrrolo[2,1-f][1,2,4]triazin-2-amine] | 3 nM |
| COc1nc(N[C@@H]2CCN(C3COC3)CC2(F)F)nn2ccc(-c3cc(F)c4nc(C)n(CC(F)F)c4c3)c12 [Compound 164, (R)—N-(3,3-Difluoro-1-(oxetan-3-yl)piperidin-4-yl)-5-(1-(2,2-difluoroethyl)-4-fluoro-2-methyl-1H-benzo[d]imidazol-6-yl)-4-methoxypyrrolo[2,1-f][1,2,4]triazin-2-amine] | 2.1 nM |
| COc1nc(N[C@H]2CC[C@](C)(O)CC2)nn2ccc(-c3cc(F)c4nc(C)n(C(C)C)c4c3)c12 [Compound 168, trans-4-((5-(4-Fluoro-1-isopropyl-2-methyl-1H-benzo[d]imidazol-6-yl)-4-methoxypyrrolo[2,1-f][1,2,4]triazin-2-yl)amino)-1-methylcyclohexan-1-ol] | 2.7 nM |
| COc1nc(N[C@H]2C[C@@](C)(O)C2)nn2ccc(-c3ccc4nc(C)n(CCO)c4c3)c12 [Compound 169, cis-3-((5-(1-(2-Hydroxyethyl)-2-methyl-1H-benzo[d]imidazol-6-yl)-4-methoxypyrrolo[2,1-f][1,2,4]triazin-2-yl)amino)-1-methylcyclobutan-1-ol] | 2.1 nM |
| COc1nc(N[C@H]2C[C@](C)(O)C2)nn2ccc(-c3ccc4nc(C)n(CCO)c4c3)c12 [Compound 170, trans-3-((5-(1-(2-Hydroxyethyl)-2-methyl-1H-benzo[d]imidazol-6-yl)-4-methoxypyrrolo[2,1-f][1,2,4]triazin-2-yl)amino)-1-methylcyclobutan-1-ol] | 8.6 nM |
| COc1nc(N[C@H]2C[C@](C)(NC(C)=O)C2)nn2ccc(-c3ccc4nc(C)n(CCO)c4c3)c12 [Compound 171, N-(trans-3-((5-(1-(2-Hydroxyethyl)-2-methyl-1H-benzo[d]imidazol-6-yl)-4-methoxypyrrolo[2,1-f][1,2,4]triazin-2-yl)amino)-1-methylcyclobutyl)acetamide] | 2.9 nM |
| COc1nc(N[C@H]2CC[C@](C)(O)CC2)nn2ccc(-c3ccc4nc(C)n(CCO)c4c3)c12 [Compound 172, trans-4-((5-(1-(2-Hydroxyethyl)-2-methyl-1H-benzo[d]imidazol-6-yl)-4-methoxypyrrolo[2,1-f][1,2,4]triazin-2-yl)amino)-1-methylcyclohexan-1-ol] | 2.5 nM |
| COc1nc(NC2CCC3(CC2)CN(C(C)=O)C3)nn2ccc(-c3ccc4nc(C)n(CCO)c4c3)c12 [Compound 173, 1-(7-((5-(1-(2-hydroxyethyl)-2-methyl-1H-benzo[d]imidazol-6-yl)-4-methoxypyrrolo[2,1-f][1,2,4]triazin-2-yl)amino)-2-azaspiro[3.5]nonan-2-yl)ethan-1-one] | 1.7 nM |
| COc1nc(NC2CCC3(CC2)COC3)nn2ccc(-c3ccc4nc(C)n(CCO)c4c3)c12 [Compound 174, 2-(6-(2-((2-Oxaspiro[3.5]nonan-7-yl)amino)-4-methoxypyrrolo[2,1-f][1,2,4]triazin-5-yl)-2-methyl-1H-benzo[d]imidazol-1-yl)ethan-1-ol] | 3 nM |
| COc1nc(NC2CCC3(CC2)COC3)nn2ccc(-c3ccc4nncn4c3)c12 [Compound 188, 5-([1,2,4]Triazolo[4,3-a]pyridin-6-yl)-4-methoxy-N-(2-oxaspiro[3.5]nonan-7-yl)pyrrolo[2,1-f][1,2,4]triazin-2-amine] | 50.3 nM |
| COc1nc(N[C@H]2C[C@](C)(N)C2)nn2ccc(-c3ccc4ncnn4c3)c12 [Compound 190, trans-N^1-(5-([1,2,4]Triazolo[1,5-a]pyridin-6-yl)-4-methoxypyrrolo[2,1-f][1,2,4]triazin-2-yl)-3-methylcyclobutane-1,3-diamine] | 11.5 nM |
| COc1nc(N[C@H]2C[C@@H](OCCO)C2)nn2ccc(-c3ccc4nnn(C)c4c3)c12 [Compound 201, 2-(cis-3-((4-Methoxy-5-(1-methyl-1H-benzo[d][1,2,3]triazol-6-yl)pyrrolo[2,1-f][1,2,4]triazin-2-yl)amino)cyclobutoxy)ethan-1-ol] | 2 nM |
| COc1nc(N[C@H]2C[C@@](C)(N)C2)nn2ccc(-c3ccc4nnn(C)c4c3)c12 [Compound 202, cis-N^1-(4-Methoxy-5-(1-methyl-1H-benzo[d][1,2,3]triazol-6-yl)pyrrolo[2,1-f][1,2,4]triazin-2-yl)-3-methylcyclobutane-1,3-diamine] | 10.9 nM |
| COc1nc(N[C@H]2C[C@@](C)(N(C)C)C2)nn2ccc(-c3ccc4nnn(C)c4c3)c12 [Compound 204, cis-N^3-(4-methoxy-5-(1-methyl-1H-benzo[d][1,2,3]triazol-6-yl)pyrrolo[2,1-f][1,2,4]triazin-2-yl)-N^1,N^1,1-trimethylcyclobutane-1,3-diamine] | 3.5 nM |

The next lines start with the values.

| IC50 | Structure (SMILES) |
| --- | --- |
| 100 nM | COc1nc(N[C@H]2CC[C@](C)(O)CC2)nn2ccc(-c3ccc4nncn4c3)c12 [Compound 187, trans-4-((5-([1,2,4]Triazolo[4,3-a]pyridin-6-yl)-4-methoxypyrrolo[2,1-f][1,2,4]triazin-2-yl)amino)-1-methylcyclohexan-1-ol] |
| 5.3 nM | COc1nc(N[C@H]2C[C@@](C)(NC(C)=O)C2)nn2ccc(-c3ccc4ncnn4c3)c12 [Compound 191, N-(cis-3-((5-([1,2,4]Triazolo[1,5-a]pyridin-6-yl)-4-methoxypyrrolo[2,1-f][1,2,4]triazin-2-yl)amino)-1-methylcyclobutyl)acetamide] |
| 19.9 nM | COc1nc(NC2CCC(F)(F)CC2)nn2ccc(-c3ccc4ncnn4c3)c12 [Compound 193, 5-([1,2,4]Triazolo[1,5-a]pyridin-6-yl)-N-(4,4-difluorocyclohexyl)-4-methoxypyrrolo[2,1-f][1,2,4]triazin-2-amine] |
| 3.9 nM | COc1nc(NC2CCC3(CC2)CNC3)nn2ccc(-c3ccc4ncnn4c3)c12 [Compound 195, 5-([1,2,4]Triazolo[1,5-a]pyridin-6-yl)-4-methoxy-N-(2-azaspiro[3.5]nonan-7-yl)pyrrolo[2,1-f][1,2,4]triazin-2-amine] |
| 1.1 nM | COc1nc(NC2CCC3(CC2)CN(C(C)=O)C3)nn2ccc(-c3ccc4ncnn4c3)c12 [Compound 196, 1-(7-((5-([1,2,4]Triazolo[1,5-a]pyridin-6-yl)-4-methoxypyrrolo[2,1-f][1,2,4]triazin-2-yl)amino)-2-azaspiro[3.5]nonan-2-yl)ethan-1-one] |
| 29.6 nM | COc1nc(NC2CCC3(CC2)CN(C(=O)OC(C)(C)C)C3)nn2ccc(-c3ccc4ncnn4c3)c12 [Compound 197, tert-Butyl 7-((5-([1,2,4]triazolo[1,5-a]pyridin-6-yl)-4-methoxypyrrolo[2,1-f][1,2,4]triazin-2-yl)amino)-2-azaspiro[3.5]nonane-2-carboxylate] |
| 4.5 nM | COc1nc(NC2CCC3(CC2)COC3)nn2ccc(-c3ccc4ncnn4c3)c12 [Compound 198, 5-([1,2,4]Triazolo[1,5-a]pyridin-6-yl)-4-methoxy-N-(2-oxaspiro[3.5]nonan-7-yl)pyrrolo[2,1-f][1,2,4]triazin-2-amine] |
| 5.7 nM | COc1nc(N[C@H]2C[C@@](C)(O)C2)nn2ccc(-c3ccc4nnn(C)c4c3)c12 [Compound 199, cis-3-((4-Methoxy-5-(1-methyl-1H-benzo[d][1,2,3]triazol-6-yl)pyrrolo[2,1-f][1,2,4]triazin-2-yl)amino)-1-methylcyclobutan-1-ol] |
| 7.5 nM | COc1nc(N[C@H]2C[C@](C)(N)C2)nn2ccc(-c3ccc4nnn(C)c4c3)c12 [Compound 203, trans-N^1-(4-methoxy-5-(1-methyl-1H-benzo[d][1,2,3]triazol-6-yl)pyrrolo[2,1-f][1,2,4]triazin-2-yl)-3-methylcyclobutane-1,3-diamine] |
| 4.3 nM | COc1nc(N[C@H]2C[C@@](C)(NC(C)=O)C2)nn2ccc(-c3ccc4nnn(C)c4c3)c12 [Compound 205, N-(cis-3-((4-Methoxy-5-(1-methyl-1H-benzo[d][1,2,3]triazol-6-yl)pyrrolo[2,1-f][1,2,4]triazin-2-yl)amino)-1-methylcyclobutyl)acetamide] |
| 0.4 nM | COc1nc(N[C@H]2C[C@](C)(NC(C)=O)C2)nn2ccc(-c3ccc4nnn(C)c4c3)c12 [Compound 206, N-(trans-3-((4-Methoxy-5-(1-methyl-1H-benzo[d][1,2,3]triazol-6-yl)pyrrolo[2,1-f][1,2,4]triazin-2-yl)amino)-1-methylcyclobutyl)acetamide] |
